US9409975B2, “Antibody binding microbial heparin binding motif to retard or prevent microbial biofilm formation on implanted medical devices” (priority 2012, dated 2016)

Tested on: C. albicans surface proteins
Experiment: nLC-MSMS semi-quantitation of C. albicans surface proteins in supernatants of heparin-treated versus untreated organisms
Type: cell-based, Candida albicans
Procedure: In other systems, heparin has been reported to cleave surface proteins (56), change protein conformation (57), and bind trypsin-sensitive lysine and arginine residues in histone H1 (58). In order to understand whether incubation with heparin changed the conformation of C. albicans surface proteins, 1×10^7 C. albicans were incubated for one hour at […] on a rotator with pharmacologic heparin (20,000 units/ml) diluted in RPMI-HEPES to a working concentration of 250 units/ml. C. albicans 1×10^7 C. albicans in an equal volume of RPMI-HEPES served as control. Supernatants were removed. 300 μl of Hep+ and Hep− supernatants were incubated with 100 μl avidin agarose beads (Thermo Scientific) for 60 min at room temperature on a rotator in the presence of 50 units heparin (Hep+); an equal volume of RPMI-HEPES was substituted for heparin in the Hep− supernatants. Beads were pelleted, and 100 μl beads were incubated with 100 μl 3.0 M NaCl for 30 mins at room temperature on a rotator. Beads were pelleted and the supernatants were withdrawn; 100 μl TCA was added to 100 μl Hep+ or 100 μl Hep− supernatants and incubated on ice overnight at 4° C. The TCA precipitates were stored at −80° C. until analysis by mass spectroscopy.
Six biological replicates of TCA precipitated protein pellets from equal cellular equivalence of heparin-treated (Hep+) and untreated (Hep−) conditioned medium from cultures of C. albicans were each solubilized in 50 μL Laemmli gel buffer. To remove any residual TCA and to further concentrate the samples, each was subjected to buffer exchange and concentration using an Amicon ultra 3 kDa microfuge filtration cartridge at 14,000×g for 15 min with five subsequent additions of 50 μL of 1× Laemmli gel buffer between spins. The resulting retained proteins (6 Hep+ and 6 Hep−) were subsequently prepared for SDS-PAGE by combining into two pools of three samples for the Hep+ and Hep− conditioned medium. The replicate sample pools were loaded onto two 4-12% mini gels and separated using the MOPS buffer system followed by silver staining to visualize the proteins using the Sigma Proteosilver system. The proteins were prepared for identification and quantitation by mass spectrometry by gridding the gel lanes from the replicates of Hep+ and Hep− samples into 11 equal regions followed by in gel trypsin digestion and extraction of peptides as described (59)
The recovered peptides from the gridded gel sections were analyzed by liquid chromatography coupled nano-electrospray mass spectrometry (nLC-MSMS) on a TripleTOF 5600 mass spectrometer (AB Sciex, Toronto Canada) attached to an Eksigent (Dublin Calif.) nanoLC ultra nanoflow system. […]

[1] = heparin 250 units/ml, compared to untreated organisms

## heparin
[1]
  increase in VPTTDVSVVDLTVR from Tdh3 in supernatants: five-fold increase
  increase in intensity of IDVVDQAK from Eno1 in supernatants: seven-fold increase
  increase in intensity of SLLDAAVK from Pgk1 in supernatants: ten-fold increase
Versus corresponding peptides from untreated organisms, data not shown
  increased intensities of other peptides from Eno1, Pgk1 and Tdh3: 10-16 fold
